Source: US7262009B2, “Method of cell detection” (Matforsk; Norwegian Food Research Institute, priority 2000, dated 2007)

Columns and labels:
[1] = tested on: Campylobacter jejuni type strain DSMZ 4688; assay: Effect of externally added DNase on DNA in heat-treated cells, 5'-nuclease PCR; assay type: cell-based; settings: for reduction of the signal compared to control without DNase: 10 U DNase
Experimental: The effect on the DNA stability at room temperature after heat-treatment of the cultures, and after addition of DNase was investigated. 1.7±0.8×10^7 cells (with DNase) and 5.0±0.6×10^7 cells (without DNase) of C. jejuni type strain were used in these experiments. […] One set of tubes were then incubated further at room temperature, and samples for PCR analysis removed at intervals of 5, 15, and 30 min, 1 h, 6 and 24 hrs, and 5 days. 10 U RQl DNase (Promega, Madison, Wis., USA) and 1× DNase buffer were added to another set of tubes before the incubation at room temperature. Aliquots were analyzed after 5, 15 and 30 min, and after 1 hr, 6 and 24 hours. For the PCR analysis, DNA was purified from 10 μl aliquots from the respective time-points, and the subsequent 5′-nuclease PCR assay performed as described below.
Dynabeads® DNA Direct I (Dynal AS, Oslo, Norway), 200 μl, were then added to the suspension of bacteria, and the bacteria-bead suspension was incubated at 65° C. for 20 minutes, followed by incubation at room temperature for another 2 minutes. DNA bound to magnetic beads was then drawn to the wall of the microcentrifuge tube by a magnet (MPC®-E, Dynal AS, Oslo, Norway) for 2 minutes. The supernatant containing salts, detergent and cell debris was carefully removed without disrupting the Dynabeads/DNA complex. The beads were washed twice with a washing buffer (buffer 2 from the kit). Finally, the DNA was removed from the beads by resuspending in 40 μl 10 mM Tris HCl, pH 8.0 (buffer 3 from the kit), and incubation at 65° C. for 5 minutes. The beads, now released from the DNA, were collected with the magnet, and the DNA-containing supernatant was transferred to a fresh tube and used directly in the PCR.
(§1) Amplification reactions (50 μl) contained a DNA sample (1 μl), 1× TaqMan™ Buffer A, 5 mM MgCl2, 200 μM dATP, dCTP, dGTP, and 400 μM dUTF, 0.02 μM. C. Jejuni specific probe, 0.3 μM C. jejuni specific primers—see Table 1 below (each), 1 U AmpErase™ Uracil N-glycosylase (UNG), and 2.5 U AmpliTaq Gold™ DNA polymerase.
(§2) Before amplification, the PCR mixture was heated to 50° C. in 5 min to let the UNG destroy possibly contaminating PCR products, and 95° C. for 10 min to denature the template DNA. Amplification, profile: 40 cycles of 95° C. for 20 seconds and 60° C. for one minute. Reactions were performed in the ABI Prism® 7700 Sequence Detection System (PE Biosystems, Foster City, Calif., USA). Reaction conditions were programmed and data were analyzed on a power Macintosh 4400/20 (Apple Computer, Santa Clara, Calif., USA) linked directly to the ABE prism® 7700 Sequence Detection system using the SDS 1.6.3 application software (PE Biosystems, Foster City, Calif., USA) as described by the manufacturer.
The amplification was plotted as ΔRn, which was the normalized reporter signal (reporter signal minus background), against number of cycles. […] This gave threshold cycles (CT), which is defined as the PCR cycle where an increase in fluorescence first occurred, for each amplification plot. […] The CT-values were plotted against log input DNA/cells and gave standard curves for quantification of unknown samples and possibilities to estimate the amplification efficiency in the reaction (Heid, C. A., J. Stevens, K. J. Livak and P. M. Williams, 1996, Real time quantitative PCR, Genome Research 6: 986-994; PE Biosystems, 1997, User bulletin 2; ABI PRISM 7700 Sequence Detection System). […]

[2] = tested on: purified DNA from C. jejuni; assay: DNase treatment of purified DNA, 5'-nuclease PCR; assay type: biochemical; settings: after 30 minutes of DNase treatment
Experimental: as §1, §2
The amplification was plotted as ΔRn, which was the normalized reporter signal (reporter signal minus background), against number of cycles. […] This gave threshold cycles (CT), which is defined as the PCR cycle where an increase in fluorescence first occurred, for each amplification plot. […]

16S rDNA gene (pure DNA) = assay: PCR inhibitory effect of photoactivated and unactivated EMA on pure DNA (16S rDNA PCR, agarose gel); assay type: biochemical
Experimental: The PCR inhibitory effects of both photoactivated, and unactivated EMA were investigated for pure DNA. PCR amplifications were carried out on dilution series of 1000, 100 and 10 μg/ml EMA. The 16S rDNA gene was amplified through the application of the forward primer 5′[…]3′ and the reverse primer 5′[…]3′. These primer sites are universally conserved for eubacterial 16S rDNA.
The PCR amplifications were done using the GeneAmp 9700 PCR amplification system (PE biosystems, Norwalk, Conn., USA). The 50 μl PCR reactions contained 10 pmol of each primer, 200 μM dNTP, 10 mM Tris-HCl (pH 8.8), 1.5 mM MgCl2, 50 mM KCl, 0.1% Triton® x-100, 1 U DynaZyme™ Thermostable DNA Polymerase (Finnzymes OY, Espoo, Finland) and 2 ng template. The cycling parameters were: 94° C. for 30 s, 55° C. for 30 s and 72° C. for 1 minute.
The cycling step was repeated 25 times. The samples were heated to 94° C. for 5 minutes prior to the amplification, and an extension step at 72° C. for 7 minutes was included after completion of the amplification reactions.
For each dilution series PCR was employed both on samples where EMA had been covalently photoactivated to DNA through illumination with a Luxor 18W type FL-185 lamp (Luxor ASA, Oslo, Norway) at 5 cm for 15 minutes, and on samples where EMA had been added to the DNA in the dark. […] For 100 and 10 μg/ml, the photoactivated EMA inhibited PCR, while PCR for the unactivated EMA was not inhibited (FIG. 1). 10 μg/ml amplification products were separated on a 1% agarose gel for 45 minutes at 100 volts. The conclusion from these experiments is that EMA covalently bound to DNA is sufficient to inhibit PCR amplification, and that EMA by itself is only inhibitory to PCR at high concentrations.

E. coli = assay: EMA as living/dead stain: PCR signal from living and killed E. coli; assay type: cell-based; settings: for difference in PCR signal intensities between the treated sample and the control: light 10 minutes
Experimental: Panel B: The signal intensities were determined as pixel values in an 8 bit grayscale by using the program Gel-Pro ANALYZER software (Medica Cybernetics, Silver Spring. Md.). The relative signal intensities for the EMA treated samples are given as a percentage of the untreated samples.
E. coli was killed by ethanol, heat, and formaldehyde to test the effect of EMA as a living/dead stain. In these experiments aliquots of approximately 10^8 cells of E. coli were pelleted in a microcentrifuge at 8000 rpm for 5 minutes, the supernant removed, and the cells resuspended in 50 μl of the respective liquids; water 96% ethanol, and 2% formaldehyde. The ethanol and formaldehyde treated samples were incubated at room temperature, while the water samples were incubated both at room temperature and at 95° C. All samples were incubated at the respective temperatures for 5 minutes.
The bacteria were subsequently pelleted by centrifugation, the supernatant removed, and the cells resuspended in 50 μl water. […]
All the samples were exposed to light for 10 minutes. Subsequently, the samples were resuspended in 500 μl […] (GTC) and 1% sarkosyl containing 1U Dynabeads DNA DIRECT beads (Dynal AS, Oslo, Norway). Incubation was continued at room temperature for an additional 5 minutes. 1 ml 96% ethanol was added, and after 5 minutes the samples were washed twice with 1 ml 70% ethanol. The bead and DNA complex was then resuspended in 50 μl water, and finally heated to 65° C. for 10 minutes to remove residual ethanol. 2% of the purified DNA was used in each amplification reaction as described above.

purified DNA = assay: Time series for covalent binding of EMA to DNA, real time quantitative PCR; assay type: biochemical
Experimental: (§3) Amplification reactions (50 μl) contained a DNA sample (1-5 μl), 1× TaqMan™ Buffer A, […], 200 μM dATP, dCTP, dGTP, and 400 μM dUTP, 0.1 μM E. coli specific probe, 0.3 μM E. coli specific primers (each), and 2.5 U AmpliTaq GoldT™ DNA polymerase. PCR samples and controls were prepared in triplicates. Reaction tubes were MicroAmp® Optical tubes and tube caps were MicroAmp® Optical caps. All consumables were supplied by PE Biosystems, Foster City, Calif., USA. Before amplification, the PCR mixture was heated to 95° C. for 10 mins to denature the template DNA. Amplification profile: 40 cycles of 95° C. for 20 seconds and 60° C. for one minute. Reactions were performed in the ABI prism® 7700 Sequence Detection System (PE Biosysrems, Foster City, Calif., USA).
(§4) The amplification was plotted as ΔRn, which was the normalized reporter signal (reporter signal minus background), against number of cycles. One then chose a threshold signal, which intersected the amplification curves in the linear region of the semi-log plot. This gave threshold cycles (CT), which is detined as the PCR cycle where an increase in fluorescence first occurred, for each amplification plot. Different amplification could then be compared by their respective threshold cycles.
(§5) The light activation was done on ice with a OSRAM SLG1000 lamp (OSRAM, Norway) with a 650 W halogen light bulb at a distance of 10 cm.
EMA in concentrations 2 ng/μl, 20 ng/μl and 100 ng/μl were added to purified DNA, and exposed to light for 5 s, 15 s, 45 s, 1 min and 3 min. The amount of DNA that could serve as a template was then tested by real time quantitative PCR.

DNA = assay: Time to light inactivation of EMA, real time quantitative PCR; assay type: biochemical; settings: EMA exposed to light for 30 s or more prior to binding to DNA; 2, 20, 100 ng/μl
Experimental: as §3, §4
The light activation was done on ice with a OSRAM SLG1000 lamp (OSRAM, Norway) with a 650 W halogen light bulb at a distance of 10 cm. […]

E. coil 0157 strain 765 = assay: Viable/dead study with EMA, TaqMan PCR; assay type: cell-based, E. coli; settings: for PCR cycle difference: 100 ng/μl EMA for 5 min
Experimental: as §3, §4, §5
The strain was killed with 70% isopropyl ethanol for. 30 min. 10 ng/μl and 100 ng/μl EMA were added both to the viable control, and to the killed bacteria. The bacteria were exposed to EMA for 30, 1 min, 5 min, 10 min and 15 min. Exposure to 100 ng/μl for 5 min give the best discrimination with approximately 1 cycle difference for the viable bacteria, and 10 cycles (½^10) for the killed bacteria. […] For treated, i.e. dead bacteria, CT was at 20 PCR cycles for bacteria not exposed to EMA but at 30 for bacteria exposed to EMA.

DNase
reduction of the signal compared to control without DNase ([1]; cells heated at 72° C. for 5 min): 1 log
reduction of the signal compared to control without DNase ([1]; cells heated at 100° C. for 5 min): 1 log
reduction of the signal compared to control without DNase ([1]; cells heated at 121° C. for 15 min): 1 log
difference between the DNase treated samples and the control ([1]; cells incubated at 20° C.): little difference
difference between the DNase treated samples and the control ([1]; cells incubated at 55° C.): little difference
input material (DNA) left [2]: about 0.01%

CC[n+]1c(-c2ccccc2)c2cc(N=[N+]=[N-])ccc2c2ccc(N)cc21.[Br-] [EMA, ethidium bromide monoazide]
PCR inhibition (16S rDNA gene (pure DNA); non activated EMA (added in the dark), 1000 μg/ml): inhibited the PCR reaction
PCR inhibition (16S rDNA gene (pure DNA); photoactivated EMA, 10 μg/ml): inhibited PCR
PCR inhibition (16S rDNA gene (pure DNA); photoactivated EMA, 100 μg/ml): inhibited PCR
PCR inhibition (16S rDNA gene (pure DNA); photoactivated EMA, 1000 μg/ml): inhibited the PCR reaction
PCR inhibition (16S rDNA gene (pure DNA); unactivated EMA, 10 μg/ml): not inhibited
PCR inhibition (16S rDNA gene (pure DNA); unactivated EMA, 100 μg/ml): not inhibited
amplification efficiency for the living bacteria (E. coli; EMA 100 μg/ml): reduced the amplification efficiency
discrimination between the viable and dead bacteria (E. coli; EMA increased to 100 μg/ml): did not result in a better discrimination
difference in PCR signal intensities between the treated sample and the control (E. coli; bacteria killed by heat (95° C.), EMA 10 μg/ml): about 100%
difference in PCR signal intensities between the treated sample and the control (E. coli; bacteria killed with ethanol, EMA 10 μg/ml): about 100%
PCR inhibition (E. coli; ethanol killed bacteria (double-stranded DNA)): 100%
difference in PCR signal intensities between the treated sample and the control (E. coli; formaldehyde treated sample, EMA 10 μg/ml): 85%
PCR inhibition (E. coli; heat killed bacteria (single-stranded DNA)): 100%
difference in PCR signal intensities between the controls and the EMA sample (E. coli; living bacteria, EMA 10 μg/ml): no differences
difference in the PCR cycles (ΔCT) until a detectable signal (purified DNA; EMA 2, 20 and 100 ng/μl (all concentrations tested), after light exposure): approximately 12
time at which the binding reaction was complete (purified DNA; light exposure, EMA 2-100 ng/μl): about 30 s
fraction of DNA that could serve as a PCR template after covalent binding of EMA (purified DNA; ½^12, from ΔCT): 0,000244
difference between the control and the test sample (DNA): no significant difference
PCR cycle difference (E. coil 0157 strain 765; killed bacteria (70% isopropyl ethanol 30 min)): ~10 cycles
CT (E. coil 0157 strain 765; treated, i.e. dead bacteria exposed to EMA): 30 PCR cycles
CT (E. coil 0157 strain 765; untreated, i.e. viable bacteria exposed to EMA): 21 cycles
PCR cycle difference (E. coil 0157 strain 765; viable bacteria): approximately 1 cycle
